From patent publication US20240425865A1, “METHODS FOR TREATING CELLULAR INFLAMMATION INDUCED BY AFB1” (priority 2023, published 2024)

Legend:
miR-9 [1] = details: mouse, in vivo, 0.75 mg/kg
RelA [2] = details: mouse, in vivo, 0.75 mg/kg
RelA [3] = molecular target: RelA (Mus musculus, UniProt Q04207); assay: IP-MS of proteins interacting with RelA in MPC-5 cells; assay type: cell-based
Method: For the analysis of RelA-binding proteins, IP-MS was used to detect proteins interacting with RelA. After incubating THE MPC-5 cells with RelA antibody overnight at 4° C., MPC-5 lysates were mixed with Protein A/G agarose beads (Amersham Biosciences) and then sodium dodecyl sulfate-polyacrylamide gel electrophoresis (SDS-PAGE) analysis and Caumas blue staining were performed for isolation of target proteins. Then, protein samples were sent to Suzhou Mass-elife Biotechnology Co. Ltd (Suzhou, China) for further analysis. For liquid chromatography-mass spectrometry (LC-MS) analysis, proteins were re-solubilized in a mixture of acetonitrile and water, and sample data was analyzed using an ultra-high-performance liquid chromatography (UHPLC) system coupled to a high-resolution mass spectrometer in Mass-elife Biotech Co. Ltd. of Suzhou (Suzhou, China). Identified proteins were analyzed for abundance using Byonic 2.13.17 (Protein Metrics, California, USA) to retrieve MS raw files on the uniport human protein database.

RelA / miR-9 promoter = assay type: cell-based
miR-9 [4] = assay: qRT-PCR of miR-9 in MPC-5 treated with AFB1; assay type: cell-based
Method: • (1) glomeruli (n=6) were treated with AFB1 of 0.75 mg/kg at 0, 2, and 4 weeks; • (2) MPC-5 (n=6) was treated with AFB1 of 5, 10, and 20μ M; • (3) Relative expression levels of miR-9 in the glomeruli treated with (1) and in the MPC-5 treated with (2) were detected by adopting a qRT-PCR manner, respectively. u6 RNA was used as an internal reference for miRNA, a sequence of a forward primer of U6 gene was shown in SEQ ID NO.1 in Table 1, and a sequence of a reverse primer of U6 gene was shown in SEQ ID NO.2. A sequence of a forward primer of miR-9 was shown in SEQ ID NO.3, a sequence of a reverse primer of miR-9 was shown in SEQ ID NO.4, and a sequence of a primer of a stem-loop sequence that is used to increase a length of a miR-9 reverse transcription product was shown in SEQ ID No.45.

RelA / TRIM7 = RelA / TRIM7 (Mus musculus, UniProt Q04207); assay type: cell-based
RelA [5] = assay: Western blot of RelA in MPC-5 cells treated with AFB1; assay type: cell-based
Method: To investigate whether RelA is involved in the reduction of the expression level of miR-9 in glomerular podocytes by AFB1, relative protein expression levels of RelA in glomeruli at 0, 2, and 4 weeks treated with AFB1 of 0.75 mg/kg, and MPC-5 cells treated with AFB1 of 5, 10, 20 uM were detected, respectively, by adopting a Western blot manner.

3′-UTR of CXCR4 gene = assay: luciferase reporter (pMIR) with CXCR4 3′-UTR, co-transfection in MPC-5 cells; assay type: cell-based; details: FIG. 1C
From the text: To validate the binding of miR-9 to the CXCR4 gene, 3′-UTR targeting sequences of a wild-type CXCR4 gene and a mutant-type CXCR4 gene (target site ACCAAAG was mutated to ACGGCGC) were constructed into a luciferase reporter vector pMIR to obtain recombinant luciferase reporter vectors of the wild-type and the mutant-type. Subsequently, miR-9 and negative control miRNAs (a sequence of a primer as shown in SEQ ID NO.7 and SEQ ID NO.8) were co-transfected with the recombinant luciferase reporter vector of the wild-type or the mutant type into MPC-5 cells, and results were as shown in FIG. 1C. […] The control miRNAs were unable to targetedly bind to either the 3′-UTR of the wild-type CXCR4 or the 3′-UTR of the mutant-type CXCR4, and the fluorescence values were […].

glomeruli = assay: rAAV9-CAG-GFP-miR-9 transfection of AFB1-treated mouse, glomeruli readouts; assay type: in vivo; details: miR-9 increased via rAAV9-CAG-GFP-miR-9
Method: Relevant agents include fluorescently labeled Gr-1 antibody (CST), fluorescently labeled IFN-γ antibody (CST) or CD86 antibody (fluorescent secondary antibody: goat anti-rabbit IgG) (Abcam) and CD68 antibody (fluorescently secondary antibody: goat anti-rabbit IgG) (Abcam), and the rest of the same agents as above.
To understand the ability of miR-9 in down-regulating the CXCR4/TXNIP/NLRP3 inflammatory vesicle pathway during podocytes inflammation induced by AFB1, a 4-week-old mouse was treated with AFB1 of 0.75 mg/kg, and rAAV9-CAG-GFP-miR-9 or CAG-GFP luciferase control vector was transfected into the treated mouse, and an expression level of miR-9 in glomeruli after transfection was detected by qRT-PCR.

Sequence of RelA / TRIM7 (Q04207 whole entry, looked up): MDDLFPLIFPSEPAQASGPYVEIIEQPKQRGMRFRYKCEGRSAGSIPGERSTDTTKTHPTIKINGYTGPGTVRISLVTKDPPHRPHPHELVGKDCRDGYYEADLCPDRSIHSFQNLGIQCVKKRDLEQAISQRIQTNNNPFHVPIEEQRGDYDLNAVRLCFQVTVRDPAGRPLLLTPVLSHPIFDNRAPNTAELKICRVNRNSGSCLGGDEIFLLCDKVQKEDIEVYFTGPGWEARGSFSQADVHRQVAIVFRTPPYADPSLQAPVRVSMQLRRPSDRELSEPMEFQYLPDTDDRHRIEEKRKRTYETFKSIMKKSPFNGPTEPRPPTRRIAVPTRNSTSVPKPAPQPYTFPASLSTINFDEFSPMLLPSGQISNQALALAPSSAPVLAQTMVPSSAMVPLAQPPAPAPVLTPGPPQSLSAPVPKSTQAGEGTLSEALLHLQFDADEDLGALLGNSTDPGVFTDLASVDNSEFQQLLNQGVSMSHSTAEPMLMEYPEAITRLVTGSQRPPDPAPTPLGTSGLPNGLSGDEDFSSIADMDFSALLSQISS
Sequence of RelA (Mus musculus, UniProt Q04207) (Q04207 whole entry, looked up): as above

Substance	expression level of miR-9 in glomeruli (miR-9 [1])	p-RelA/RelA in glomeruli (RelA [2])	TRIM7 among RelA-interacting proteins (RelA [3])	RelA binding in the miR-9 promoter region (RelA / miR-9 promoter)	expression level of miR-9 in cells (MPC-5) (miR-9 [4])	binding of RelA and TRIM7 (RelA / TRIM7)	expression level of RelA protein (RelA / TRIM7)	ubiquitination of RelA (RelA / TRIM7)	p-RelA/RelA in MPC-5 cells (RelA [5])	luciferase fluorescence values, wild-type CXCR4 3′-UTR reporter (3′-UTR of CXCR4 gene; co-transfected into MPC-5 cells)	luciferase fluorescence values, mutant-type CXCR4 3′-UTR reporter (3′-UTR of CXCR4 gene; target site ACCAAAG mutated to ACGGCGC, MPC-5 cells)	secretion of IL-1β in glomeruli (glomeruli; AFB1-treated mouse, ELISA)	secretion of IL-6 in glomeruli (glomeruli; AFB1-treated mouse, ELISA)	secretion of TNF-α in glomeruli (glomeruli; AFB1-treated mouse, ELISA)	inflammatory cell infiltration in glomeruli (glomeruli; AFB1 for 4 weeks, HE staining and flow cytometry)
Aflatoxin B1 [AFB1]	significantly reduced	significant reduction	significantly enriched	reduced RelA binding	significantly reduced	promoted the binding	down-regulated	increased the ubiquitination	significant reduction	–	–	–	–	–	–
miR-9: mmu-miR-9-5p MIMAT0000142; nucleotide sequence shown in SEQ ID No. 5 (UCUUUGGUUAUCUAGCUGUAUGA; chemistry not given here)	–	–	–	–	–	–	–	–	–	relative decrease	unchanged	decreased secretion	decreased secretion	decreased secretion	attenuated inflammatory cell infiltration
